Measured values reported in patent US20250275959A1, “COMPOUNDS AND METHODS OF THEIR USE” (LEXICON PHARMACEUTICALS, INC., priority 2024, published 2025).

Legend:
[1] = biological target: hACSL5 (Homo sapiens (Human), UniProt Q9ULC5); assay: Human ACSL5 coupled enzyme Amplex Red assay; format: biochemical; conditions: read-out: hACSL5 IC50
In short: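 C-terminally His-tagged ACSL5 (33-683) from sf9 cells, 20 nM, was preincubated with compound in MOPS-NaOH pH 7.6 with MgCl2, peroxidase and acyl-CoA oxidase. Reactions were started with 25 μM oleate, 30 μM CoA, 1 mM ATP and 50 μM Amplex Red; fluorescence (535/590 nm) after 10 minutes at 25° C. was fitted to the Hill equation for IC50 and maximal inhibition.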

[2] = Murine diet-induced obesity (DIO) model, Compounds B-D study; format: in vivo, C57BL/6J mice; conditions: DIO mice; for mean adipose weights versus control group: abdominal adipose tissue; for ITT blood glucose versus control group: Day 32, at 15, 30, 60 and 90 minutes after insulin
Description: The effects of four representative compounds of the invention were tested in a mouse model of diet-induced obesity (DIO): • Compound A is (R)—N-(tert-butylsulfonyl)-4-(1-(5-(pyridin-3-yloxy)pyridin-2-yl)ethoxy)-3-(trifluoromethyl)benzamide; • Compound B is (R)-4-(1-(5-(cyclopropylmethoxy)pyridin-2-yl)propoxy)-N-((4-(2-(dimethylamino)ethoxy)phenyl)sulfonyl)-2,3-difluorobenzamide; • Compound C is (R)—N-((4-(2-(dimethylamino)ethoxy)piperidin-1l-yl)sulfonyl)-2,3-difluoro-4-(1-(5-(pyridin-2-yloxy)pyridin-2-yl)propoxy)benzamide; and • Compound D is (R)-2,3-difluoro-N-((4-methylpiperazin-1-yl)sulfonyl)-4-(1-(5-(pyridin-2-yloxy)pyridin-2-yl)propoxy)benzamide.
The mice used in these experiments were C57BL/6J mice fed a high-fat diet (D12492 from Research Diets) ad libitum during the study period. The vehicle and test article formulations were 10% w/v Solutol in water.
In this study, three compounds tested at 30 mg/kg were compared against vehicle control over a month. After their acclimation period, DIO mice were equally divided into groups of ten mice each based on body weight. The animals were pre-dosed for three days prior to formal dosing (once per day treatment every group), as well as weight and food intake were recorded from Day −2 onwards. From Day 1 to Day 27, the animals in the dosing group were administered orally by gavage at 5:00 p.m. every day. All animals were fasted overnight after dosing on Day 28 and Day 29. Then the blood (retro-orbital bleed) of mice from each group was collected at 7:00 a.m. to separate out the serum for measuring total cholesterol levels (TC), triglyceride (TG), aminotransferase alanine (ALT), aspartate aminotransferase (AST) and total bilirubin (TBil) levels on Day 29. On day 30, all animals were performed OGTT test (0 min, 15 min, 30 min, 60 min, 90 min and 120 min) and measured insulin levels (0 min, 15 min, 30 min and 60 min). On day 32, all animals were injected insulin after 4 hours fasting, then performed ITT test (0 min, 15 min, 30 min, 60 min and 90 min). On day 33, Epididymal white adipose tissue (eWAT), jejunum, liver, heart and brain were collected; eWAT, liver and heart weights were recorded. All of the adipose tissue in the abdominal cavity was collected and weighted, and the fatty tissue coefficient (body fat ratio) was calculated and then stored at −80° C. for inspection.
• 1. Body weight and Food Consumption: Pre-dose every day from Day −2 onwards. • 2. Day −2,—1 and Day 0: Handle mice and gavage with vehicle. • 3. Day 1˜27: Dose˜5:00 PM. • 4. Day 28: Dose˜5:00 PM. Fast overnight. • 5. Day 29: Determine total cholesterol levels and triglyceride, ALT, AST, total bilirubin levels˜7:00 AM. Resume feeding. • 6. Day 29: Dose˜5:00 PM. Fast overnight. • 7. Day 30: (No drug administration) Oral glucose tolerance test (OGTT) with glucose levels measured at Pre-dose, 15 min, 30 min, 60 min, 90 min and 120 min after the glucose challenge. And insulin levels will be test at time 0 min, 15 min, 30 min and 60 min after the glucose challenge. • 8. Day 30˜31: Dose˜5:00 PM. • 9. Day 32: (No drug administration) ITT test (two days after the OGTT test): Fast 4 h. After insulin injection, the levels of glucose will be measured at Pre-dose, 15 min, 30 min, 60 min and 90 min. • 10. After the ITT test. Collect serum with a terminal bleed from all 50 mice. • 11. Collect epidydimal WAT (eWAT) pad, jejunum, liver, heart, and brain. • 12. Record eWAT, liver, and heart weights. • 13. Before freezing tissue/serum: • (i) Assess Drug Concentration; serum, liver, eWAT, heart, jujenum, and brain. (25 serum samples; 5 mice/group will progress to biomarker study and remaining 25 serum samples saved for future analysis). • 14. Prepare liver, heart and eWAT tissue for histopathology analysis. • (ii) Liver for all 50 mice; HE staining to assess liver steatosis. • (iii) Heart or all 50 mice; HE and DAPI staining to assess cardiac morphology. […]

Sequence of hACSL5 (Q9ULC5 33-683): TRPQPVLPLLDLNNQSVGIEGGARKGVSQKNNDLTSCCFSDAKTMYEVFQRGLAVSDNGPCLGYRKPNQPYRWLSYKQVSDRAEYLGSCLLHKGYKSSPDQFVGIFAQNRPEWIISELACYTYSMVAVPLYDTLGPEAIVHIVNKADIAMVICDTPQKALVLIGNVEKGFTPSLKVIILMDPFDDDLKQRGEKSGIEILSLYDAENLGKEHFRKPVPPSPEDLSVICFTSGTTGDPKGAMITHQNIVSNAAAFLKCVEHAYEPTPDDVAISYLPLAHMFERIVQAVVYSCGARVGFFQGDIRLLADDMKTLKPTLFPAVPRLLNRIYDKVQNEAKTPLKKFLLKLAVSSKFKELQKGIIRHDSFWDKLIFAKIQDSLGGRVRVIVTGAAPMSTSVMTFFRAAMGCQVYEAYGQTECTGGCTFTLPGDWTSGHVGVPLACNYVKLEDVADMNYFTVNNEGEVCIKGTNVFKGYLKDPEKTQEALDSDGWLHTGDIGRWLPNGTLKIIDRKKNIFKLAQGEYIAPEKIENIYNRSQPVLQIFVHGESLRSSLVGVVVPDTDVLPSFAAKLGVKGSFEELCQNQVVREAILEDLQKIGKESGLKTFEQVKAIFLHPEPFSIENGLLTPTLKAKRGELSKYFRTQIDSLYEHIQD

## CC[C@@H](Oc1ccc(C(=O)NS(=O)(=O)N2CCN(C)CC2)c(F)c1F)c1ccc(Oc2ccccn2)cn1 [Compound D, (R)-2,3-difluoro-N-((4-methylpiperazin-1-yl)sulfonyl)-4-(1-(5-(pyridin-2-yloxy)pyridin-2-yl)propoxy)benzamide]
[1]
  IC50: < 100 nM
[2]; 30 mg/kg oral daily
  mean body weight versus control group: significantly lower than that of the control group from Day 15 to the end
  overall food consumption versus control group: significantly lower than that of the control group
[2]; 30 mg/kg oral daily, Day 1
  Body Weight (g)/Day: 44.9 ± 4.3 g
[2]; 30 mg/kg oral daily, Day 2
  Body Weight (g)/Day: 44.3 ± 4 g
[2]; 30 mg/kg oral daily, Day 3
  Body Weight (g)/Day: 43.6 ± 3.9 g
[2]; 30 mg/kg oral daily, Day 4
  Body Weight (g)/Day: 43.7 ± 3.8 g
[2]; 30 mg/kg oral daily, Day 5
  Body Weight (g)/Day: 43.7 ± 3.6 g
[2]; 30 mg/kg oral daily, Day 6
  Body Weight (g)/Day: 43.5 ± 3.6 g
[2]; 30 mg/kg oral daily, Day 7
  Body Weight (g)/Day: 43.4 ± 3.5 g
[2]; 30 mg/kg oral daily, Day 8
  Body Weight (g)/Day: 43.7 ± 3.6 g
[2]; 30 mg/kg oral daily, Day 9
  Body Weight (g)/Day: 43.5 ± 3.6 g
[2]; 30 mg/kg oral daily, Day 10
  Body Weight (g)/Day: 43.3 ± 3.5 g
[2]; 30 mg/kg oral daily, Day 11
  Body Weight (g)/Day: 42.9 ± 3.4 g
[2]; 30 mg/kg oral daily, Day 12
  Body Weight (g)/Day: 42.6 ± 3.4 g
[2]; 30 mg/kg oral daily, Day 13
  Body Weight (g)/Day: 42.3 ± 3.4 g
[2]; 30 mg/kg oral daily, Day 14
  Body Weight (g)/Day: 42.3 ± 3.3 g
[2]; 30 mg/kg oral daily, Day 15
  Body Weight (g)/Day: 42.4 ± 3.2 g
[2]; 30 mg/kg oral daily, Day 16
  Body Weight (g)/Day: 42.3 ± 3.2 g
[2]; 30 mg/kg oral daily, Day 17
  Body Weight (g)/Day: 42.1 ± 3.4 g
[2]; 30 mg/kg oral daily, Day 18
  Body Weight (g)/Day: 42.2 ± 3.4 g
[2]; 30 mg/kg oral daily, Day 19
  Body Weight (g)/Day: 42.3 ± 3.5 g
[2]; 30 mg/kg oral daily, Day 20
  Body Weight (g)/Day: 42.3 ± 3.6 g
[2]; 30 mg/kg oral daily, Day 21
  Body Weight (g)/Day: 42.3 ± 3.6 g
[2]; 30 mg/kg oral daily, Day 22
  Body Weight (g)/Day: 42.3 ± 3.7 g
[2]; 30 mg/kg oral daily, Day 23
  Body Weight (g)/Day: 42.3 ± 3.7 g
[2]; 30 mg/kg oral daily, Day 24
  Body Weight (g)/Day: 42.2 ± 3.8 g
[2]; 30 mg/kg oral daily, Day 25
  Body Weight (g)/Day: 42.4 ± 3.4 g
[2]; 30 mg/kg oral daily, Day 26
  Body Weight (g)/Day: 42.5 ± 3.5 g
[2]; 30 mg/kg oral daily, Day 27
  Body Weight (g)/Day: 42.5 ± 3.7 g
[2]; 30 mg/kg oral daily, Day 28
  Body Weight (g)/Day: 42.5 ± 3.9 g
[2]; 30 mg/kg oral daily, Day 29
  Body Weight (g)/Day: 41.8 ± 3.8 g
[2]; 30 mg/kg oral daily, Day 30
  Body Weight (g)/Day: 39.5 ± 3.6 g
[2]; 30 mg/kg oral daily, Day 31
  Body Weight (g)/Day: 39.7 ± 3.9 g
[2]; 30 mg/kg oral daily, Day 32
  Body Weight (g)/Day: 38.9 ± 3.8 g
[2]; 30 mg/kg, Day 0 (pre-dose)
  Body Weight (g)/Day: 44.9 ± 4.3 g
[2]; 30 mg/kg, Day 33
  eWAT coefficient versus control group: slightly lower than that of the control group
  eWAT weights versus control group: significantly lower than that of the control group
[2]; 30 mg/kg, Day −1 (pre-dose)
  Body Weight (g)/Day: 44.8 ± 4.1 g
[2]; 30 mg/kg, Day −2 (pre-dose)
  Body Weight (g)/Day: 44.9 ± 4.1 g
[2]; 30 mg/kg
  mean adipose weights versus control group: significantly lower than that of the control group
[2]
  ITT blood glucose versus control group: significantly lower than that of the control group

## CC[C@@H](Oc1ccc(C(=O)NS(=O)(=O)N2CCC(OCCN(C)C)CC2)c(F)c1F)c1ccc(Oc2ccccn2)cn1 [Compound C, (R)-N-((4-(2-(dimethylamino)ethoxy)piperidin-1-yl)sulfonyl)-2,3-difluoro-4-(1-(5-(pyridin-2-yloxy)pyridin-2-yl)propoxy)benzamide]
[1]
  IC50: < 100 nM
[2]; 30 mg/kg oral daily
  mean body weight versus control group: significantly lower than that of the control group from Day 23
  overall food consumption versus control group: significantly lower than that of the control group
[2]; 30 mg/kg oral daily, Day 1
  Body Weight (g)/Day: 45 ± 4.9 g
[2]; 30 mg/kg oral daily, Day 2
  Body Weight (g)/Day: 44.8 ± 5 g
[2]; 30 mg/kg oral daily, Day 3
  Body Weight (g)/Day: 44.3 ± 4.9 g
[2]; 30 mg/kg oral daily, Day 4
  Body Weight (g)/Day: 44.3 ± 4.9 g
[2]; 30 mg/kg oral daily, Day 5
  Body Weight (g)/Day: 44.1 ± 4.9 g
[2]; 30 mg/kg oral daily, Day 6
  Body Weight (g)/Day: 44 ± 4.7 g
[2]; 30 mg/kg oral daily, Day 7
  Body Weight (g)/Day: 43.5 ± 4.9 g
[2]; 30 mg/kg oral daily, Day 8
  Body Weight (g)/Day: 44 ± 5 g
[2]; 30 mg/kg oral daily, Day 9
  Body Weight (g)/Day: 44.2 ± 4.8 g
[2]; 30 mg/kg oral daily, Day 10
  Body Weight (g)/Day: 44.2 ± 4.7 g
[2]; 30 mg/kg oral daily, Day 11
  Body Weight (g)/Day: 44.4 ± 4.8 g
[2]; 30 mg/kg oral daily, Day 12
  Body Weight (g)/Day: 43.9 ± 4.9 g
[2]; 30 mg/kg oral daily, Day 13
  Body Weight (g)/Day: 43.7 ± 4.7 g
[2]; 30 mg/kg oral daily, Day 14
  Body Weight (g)/Day: 43.7 ± 4.7 g
[2]; 30 mg/kg oral daily, Day 15
  Body Weight (g)/Day: 43.9 ± 4.8 g
[2]; 30 mg/kg oral daily, Day 16
  Body Weight (g)/Day: 44.1 ± 4.8 g
[2]; 30 mg/kg oral daily, Day 17
  Body Weight (g)/Day: 43.5 ± 4.7 g
[2]; 30 mg/kg oral daily, Day 18
  Body Weight (g)/Day: 43.6 ± 4.6 g
[2]; 30 mg/kg oral daily, Day 19
  Body Weight (g)/Day: 43.9 ± 4.9 g
[2]; 30 mg/kg oral daily, Day 20
  Body Weight (g)/Day: 44.1 ± 4.8 g
[2]; 30 mg/kg oral daily, Day 21
  Body Weight (g)/Day: 44.2 ± 5 g
[2]; 30 mg/kg oral daily, Day 22
  Body Weight (g)/Day: 44.1 ± 5.1 g
[2]; 30 mg/kg oral daily, Day 23
  Body Weight (g)/Day: 44.1 ± 5.3 g
[2]; 30 mg/kg oral daily, Day 24
  Body Weight (g)/Day: 43.8 ± 5.3 g
[2]; 30 mg/kg oral daily, Day 25
  Body Weight (g)/Day: 43.9 ± 5.2 g
[2]; 30 mg/kg oral daily, Day 26
  Body Weight (g)/Day: 43.9 ± 5.2 g
[2]; 30 mg/kg oral daily, Day 27
  Body Weight (g)/Day: 44.1 ± 5.2 g
[2]; 30 mg/kg oral daily, Day 28
  Body Weight (g)/Day: 43.9 ± 5.3 g
[2]; 30 mg/kg oral daily, Day 29
  Body Weight (g)/Day: 43.2 ± 5.2 g
[2]; 30 mg/kg oral daily, Day 30
  Body Weight (g)/Day: 41.4 ± 5 g
[2]; 30 mg/kg oral daily, Day 31
  Body Weight (g)/Day: 41.6 ± 5.2 g
[2]; 30 mg/kg oral daily, Day 32
  Body Weight (g)/Day: 41 ± 5 g
[2]; 30 mg/kg, Day 0 (pre-dose)
  Body Weight (g)/Day: 44.9 ± 5.1 g
[2]; 30 mg/kg, Day −1 (pre-dose)
  Body Weight (g)/Day: 44.9 ± 5.3 g
[2]; 30 mg/kg, Day −2 (pre-dose)
  Body Weight (g)/Day: 44.8 ± 5.2 g
[2]; 30 mg/kg
  mean adipose weights versus control group: significantly lower than that of the control group
[2]
  ITT blood glucose versus control group: significantly lower than that of the control group
